Data as given in BindingDB's records for doi:10.1021/acs.jmedchem.6b01385 (Medical University of South Carolina, 2016).

Target: Histone deacetylase 3 (Homo sapiens, UniProt O15379)
Test: Allosteric inhibition of C-terminal His-tagged recombinant human HDAC3 expressed in Sf9 cells pre-incubated for 2 hrs before acetylated lysine-aminomethyl coumarin-BOC addition and measured after 2 hrs by fluorescence based assay

Sequence of Histone deacetylase 3 (O15379 whole entry): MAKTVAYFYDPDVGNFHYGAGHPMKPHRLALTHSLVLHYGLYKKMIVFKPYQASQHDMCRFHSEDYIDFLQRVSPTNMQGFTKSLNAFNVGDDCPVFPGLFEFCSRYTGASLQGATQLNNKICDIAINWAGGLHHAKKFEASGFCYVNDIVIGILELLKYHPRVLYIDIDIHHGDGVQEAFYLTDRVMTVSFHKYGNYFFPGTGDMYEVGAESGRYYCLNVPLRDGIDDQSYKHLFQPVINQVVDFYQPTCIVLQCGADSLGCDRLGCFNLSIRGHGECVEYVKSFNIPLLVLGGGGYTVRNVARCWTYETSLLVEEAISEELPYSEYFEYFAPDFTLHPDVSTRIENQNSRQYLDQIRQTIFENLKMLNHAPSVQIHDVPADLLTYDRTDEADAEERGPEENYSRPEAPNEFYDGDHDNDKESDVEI

SMILES: CCCCCCCCCCNNC(=O)c1ccc(CNC(=O)c2ccccc2)cc1 [N-(4-(2-decylhydrazine-1-carbonyl)benzyl)benzamide]
- IC50: > 10 µM
